Data as given in US12521440B2, “Degradation of bruton's tyrosine kinase (BTK) by conjugation of BTK inhibitors with E3 ligase ligand and methods of use” (BeOne Medicines I GmbH, priority 2021, dated 2026).

Assays:
[1] = biological target: T1, BTK (Homo sapiens, UniProt Q06187); experiment: BTK degradation in TMD-8 cells (HTRF assay); type: cell-based; conditions: 6 h treatment, HTRF BTK degradation IC50 (DC50)
T1 construct: endogenous in cells; host or cells: TMD-8 cells
Method: TMD-8 cells were treated with compounds diluted in 0.2% DMSO, dilution was done according to the following protocol: (1) making 500×stock solution in DMSO from 1 mM by 6-fold dilution, total 8 doses were included; (2) making 2×solution in cell culture medium by transferring 0.5 μl 500×stock solution into 125 μl medium; (3) adding 15 μl of 2×solution to cells for incubation of 6 h.
After 6 h treatment, 10 μl 4×lysis buffer was added to each well; the plate was sealed and incubated for 30 min at room temperature on a plate shaker; Once the cells was lysed, 16 μL of cell lysate were transferred to a PE 384-well HTRF detection plate; 4 μL of pre-mixed HTRF antibodies were added to each well; the plate was covered with a plate sealer, and then spinned at 1000 rpm for 1 min, then incubated overnight at room temperature; the results were read on BMG PheraStar with HTRF protocol (337 nm-665 nm-620 nm).
(§1) The IC50 (DC50) value of a compound can be obtained by fitting the following equation Y=Bottom+(TOP−Bottom)/(1+((IC50/X)^hillslope)) wherein, X and Y are known values, and IC50, Hillslope, Top and Bottom are the parameters obtained by fitting with software. Y is the inhibition percentage (calculated from the equation), X is the concentration of the compound; IC50 is the concentration of the compound when the 50% inhibition is reached. The smaller the IC50 value is, the stronger the inhibitory ability of the compound is. Vice versa, the higher the IC50 value is, the weaker the ability the inhibitory ability of the compound is; Hillslope represents the slope of the fitted curve, generally around 1*; Bottom represents the minimum value of the curve obtained by data fitting, which is generally 0%±20%; Top represents the maximum value of the curve obtained by data fitting, which is generally 100%±20%. The experimental data were fitted by calculating and analyzing with Dotmatics data analysis software. HEK-293 Cell Treatment

[2] = system: HEK-293 cells; experiment: HEK-293 cytotoxicity detection (CellTiter-Glo); type: cell-based; conditions: Homo sapiens, 72 h incubation, read-out: HEK293
Source text: as §1
HEK-293 cells were treated with compounds diluted in 0.2% DMSO, dilution was done according to the following protocol: (1) making 500×stock solution in DMSO from 5 mM by 4-fold dilution, total 8 doses were included; (2) making 2×solution in cell culture medium by transferring 0.5 ul 500×stock solution into 125 ul medium; (3) adding 50 ul of 2×solution to cells for incubation of 72 h.
25 μl of the CellTiter-Glo® Reagent [(Promega)—Cat No. G7572] was added to each well in the 96-well plate. The contents were mixed for 2 minutes on an orbital shaker to induce cell lysis. The plate was then allowed to incubate at room temperature for 10 minutes to stabilize luminescent signal. Luminescence was recorded on BMG PheraStar with luminescence protocol.
as §1, with “IC50” for “IC50 (DC50)”, “Wherein,” for “wherein,”, “software.” for “software. HEK-293 Cell Treatment”

T1 sequence (Q06187 whole entry): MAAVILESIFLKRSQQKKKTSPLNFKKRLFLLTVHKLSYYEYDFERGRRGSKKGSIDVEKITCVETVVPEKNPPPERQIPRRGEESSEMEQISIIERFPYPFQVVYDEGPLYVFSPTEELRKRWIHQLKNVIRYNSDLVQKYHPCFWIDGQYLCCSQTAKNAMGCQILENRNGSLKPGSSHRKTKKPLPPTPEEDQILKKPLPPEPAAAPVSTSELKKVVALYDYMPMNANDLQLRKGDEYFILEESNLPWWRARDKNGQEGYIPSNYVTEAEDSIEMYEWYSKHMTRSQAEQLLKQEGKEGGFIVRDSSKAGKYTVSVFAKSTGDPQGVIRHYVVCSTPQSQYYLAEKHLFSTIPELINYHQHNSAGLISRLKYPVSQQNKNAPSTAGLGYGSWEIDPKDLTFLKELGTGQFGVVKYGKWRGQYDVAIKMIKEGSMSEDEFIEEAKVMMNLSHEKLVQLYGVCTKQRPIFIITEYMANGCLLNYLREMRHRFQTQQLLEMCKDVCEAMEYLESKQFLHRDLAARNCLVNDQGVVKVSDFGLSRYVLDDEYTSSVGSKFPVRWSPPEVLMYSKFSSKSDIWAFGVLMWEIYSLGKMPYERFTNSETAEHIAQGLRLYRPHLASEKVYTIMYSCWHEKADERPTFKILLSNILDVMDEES

DC50 [1] | SMILES | IC50 [2]
0.899 nM | Cc1cc(-c2cc(Nc3ccc(N4CCN(C(=O)C5CN(c6ccc(C7CCC(=O)NC7=O)cc6)C5)CC4)cn3)ncn2)ccc1[C@@H](C)NC(=O)c1nc(C(C)(C)C)no1 (stereo partly drawn) [Example 26, 3-(tert-butyl)-N-((1R)-1-(4-(6-((5-(4-(1-(4-(2,6-dioxopiperidin-3-yl)phenyl)azetidine-3-carbonyl)piperazin-1-yl)pyridin-2-yl)amino)pyrimidin-4-yl)-2-methylphenyl)ethyl)-1,2,4-oxadiazole-5-carboxamide] | > 10000 nM
3.57 nM | Cc1cc(-c2cc(Nc3ccc(N4CCN(C(=O)C5CN(c6cc(F)c(C7CCC(=O)NC7=O)c(F)c6)C5)CC4)cn3)ncn2)ccc1[C@@H](C)NC(=O)c1nc(C(C)(C)C)no1 (stereo partly drawn) [Example 27, 3-(tert-butyl)-N-((1R)-1-(4-(6-((5-(4-(1-(4-(2,6-dioxopiperidin-3-yl)-3,5-difluorophenyl)azetidine-3-carbonyl)piperazin-1-yl)pyridin-2-yl)amino)pyrimidin-4-yl)-2-methylphenyl)ethyl)-1,2,4-oxadiazole-5-carboxamide] | > 10000 nM
1.66 nM | Cc1cc(-c2cc(Nc3ccc(N4CCN(C(=O)C5CCN(c6ccc(N7CCC(=O)NC7=O)cc6)CC5)CC4)cn3)ncn2)ccc1[C@@H](C)NC(=O)c1nc(C(C)(C)C)no1 [Example 28, (R)-3-(tert-butyl)-N-(1-(4-(6-((5-(4-(1-(4-(2,4-dioxotetrahydropyrimidin-1(2H)-yl)phenyl)piperidine-4-carbonyl)piperazin-1-yl)pyridin-2-yl)amino)pyrimidin-4-yl)-2-methylphenyl)ethyl)-1,2,4-oxadiazole-5-carboxamide] | > 10000 nM
0.836 nM | Cc1cc(-c2cc(Nc3ccc(N4CCN(C(=O)C5CCN(c6ccc(N7CCC(=O)NC7=O)cc6)C5)CC4)cn3)ncn2)ccc1[C@@H](C)NC(=O)c1nc(C(C)(C)C)no1 (stereo partly drawn) [Example 29, 3-(tert-butyl)-N-((1R)-1-(4-(6-((5-(4-(1-(4-(2,4-dioxotetrahydropyrimidin-1(2H)-yl)phenyl)pyrrolidine-3-carbonyl)piperazin-1-yl)pyridin-2-yl)amino)pyrimidin-4-yl)-2-methylphenyl)ethyl)-1,2,4-oxadiazole-5-carboxamide] | > 10000 nM
0.539 nM | Cc1cc(-c2cc(Nc3ccc(N4CC5(CN(CC6CCN(c7ccc(N8CCC(=O)NC8=O)cc7)CC6)C5)C4)cn3)ncn2)ccc1[C@@H](C)NC(=O)c1nc(C(C)(C)C)no1 [Example 30, (R)-3-(tert-butyl)-N-(1-(4-(6-((5-(6-((1-(4-(2,4-dioxotetrahydropyrimidin-1(2H)-yl)phenyl)piperidin-4-yl)methyl)-2,6-diazaspiro [3.3]heptan-2-yl)pyridin-2-yl)amino)pyrimidin-4-yl)-2-methylphenyl)ethyl)-1,2,4-oxadiazole-5-carboxamide] | 1000 nM
1.99 nM | Cc1cc(-c2cc(Nc3ccc(N4CCC5(CCN(CC6CCN(c7ccc(N8CCC(=O)NC8=O)cc7)CC6)C5)CC4)cn3)ncn2)ccc1[C@@H](C)NC(=O)c1nc(C(C)(C)C)no1 [Example 31, (R)-3-(tert-butyl)-N-(1-(4-(6-((5-(2-((1-(4-(2,4-dioxotetrahydropyrimidin-1(2H)-yl)phenyl)piperidin-4-yl)methyl)-2,8-diazaspiro[4.5]decan-8-yl)pyridin-2-yl)amino)pyrimidin-4-yl)-2-methylphenyl)ethyl)-1,2,4-oxadiazole-5-carboxamide] | 1870 nM
1.73 nM | Cc1cc(-c2cc(Nc3ccc(N4CCC5(CC4)CN(CC4CCN(c6ccc(N7CCC(=O)NC7=O)cc6)CC4)C5)cn3)ncn2)ccc1[C@@H](C)NC(=O)c1nc(C(C)(C)C)no1 [Example 32, (R)-3-(tert-butyl)-N-(1-(4-(6-((5-(2-((1-(4-(2,4-dioxotetrahydropyrimidin-1(2H)-yl)phenyl)piperidin-4-yl)methyl)-2,7-diazaspiro [3.5]nonan-7-yl)pyridin-2-yl)amino)pyrimidin-4-yl)-2-methylphenyl)ethyl)-1,2,4-oxadiazole-5-carboxamide] | 1910 nM
1.3 nM | Cc1cc(-c2cc(Nc3ccc(N4CC5(CCN(CC6CCN(c7ccc(N8CCC(=O)NC8=O)cc7)CC6)CC5)C4)cn3)ncn2)ccc1[C@@H](C)NC(=O)c1nc(C(C)(C)C)no1 [Example 33, (R)-3-(tert-butyl)-N-(1-(4-(6-((5-(7-((1-(4-(2,4-dioxotetrahydropyrimidin-1(2H)-yl)phenyl)piperidin-4-yl)methyl)-2,7-diazaspiro [3.5]nonan-2-yl)pyridin-2-yl)amino)pyrimidin-4-yl)-2-methylphenyl)ethyl)-1,2,4-oxadiazole-5-carboxamide] | > 10000 nM
1.88 nM | Cc1cc(-c2cc(Nc3ccc(N4CCC5(CCN(CC6CCN(c7ccc(N8CCC(=O)NC8=O)cc7)CC6)CC5)CC4)cn3)ncn2)ccc1[C@@H](C)NC(=O)c1nc(C(C)(C)C)no1 [Example 34, (R)-3-(tert-butyl)-N-(1-(4-(6-((5-(9-((1-(4-(2,4-dioxotetrahydropyrimidin-1(2H)-yl)phenyl)piperidin-4-yl)methyl)-3,9-diazaspiro [5.5]undecan-3-yl)pyridin-2-yl)amino)pyrimidin-4-yl)-2-methylphenyl)ethyl)-1,2,4-oxadiazole-5-carboxamide] | 891 nM
0.981 nM | Cc1cc(-c2cc(Nc3ccc(N4CC5(CN(C(=O)C6CN(c7ccc(N8CCC(=O)NC8=O)cc7)C6)C5)C4)cn3)ncn2)ccc1[C@@H](C)NC(=O)c1nc(C(C)(C)C)no1 [Example 35, (R)-3-(tert-butyl)-N-(1-(4-(6-((5-(6-(1-(4-(2,4-dioxotetrahydropyrimidin-1(2H)-yl)phenyl)azetidine-3-carbonyl)-2,6-diazaspiro [3.3]heptan-2-yl)pyridin-2-yl)amino)pyrimidin-4-yl)-2-methylphenyl)ethyl)-1,2,4-oxadiazole-5-carboxamide] | > 10000 nM
0.566 nM | Cc1cc(-c2cc(Nc3ccc(N4CCC5(CC4)CN(C(=O)C4CN(c6ccc(N7CCC(=O)NC7=O)cc6)C4)C5)cn3)ncn2)ccc1[C@@H](C)NC(=O)c1nc(C(C)(C)C)no1 [Example 36, (R)-3-(tert-butyl)-N-(1-(4-(6-((5-(2-(1-(4-(2,4-dioxotetrahydropyrimidin-1(2H)-yl)phenyl)azetidine-3-carbonyl)-2,7-diazaspiro [3.5]nonan-7-yl)pyridin-2-yl)amino)pyrimidin-4-yl)-2-methylphenyl)ethyl)-1,2,4-oxadiazole-5-carboxamide] | > 10000 nM
0.835 nM | Cc1cc(-c2cc(Nc3ccc(N4CC5(CN(C(=O)C6CCN(c7ccc(N8CCC(=O)NC8=O)cc7)C6)C5)C4)cn3)ncn2)ccc1[C@@H](C)NC(=O)c1nc(C(C)(C)C)no1 (stereo partly drawn) [Example 37, 3-(tert-butyl)-N-((1R)-1-(4-(6-((5-(6-(1-(4-(2,4-dioxotetrahydropyrimidin-1(2H)-yl)phenyl)pyrrolidine-3-carbonyl)-2,6-diazaspiro [3.3]heptan-2-yl)pyridin-2-yl)amino)pyrimidin-4-yl)-2-methylphenyl)ethyl)-1,2,4-oxadiazole-5-carboxamide] | > 10000 nM
0.954 nM | Cc1cc(-c2cc(Nc3ccc(N4CCC5(CC4)CN(C(=O)C4CCN(c6ccc(N7CCC(=O)NC7=O)cc6)C4)C5)cn3)ncn2)ccc1[C@@H](C)NC(=O)c1nc(C(C)(C)C)no1 (stereo partly drawn) [Example 38, 3-(tert-butyl)-N-((1R)-1-(4-(6-((5-(2-(1-(4-(2,4-dioxotetrahydropyrimidin-1(2H)-yl)phenyl)pyrrolidine-3-carbonyl)-2,7-diazaspiro[3.5]nonan-7-yl)pyridin-2-yl)amino)pyrimidin-4-yl)-2-methylphenyl)ethyl)-1,2,4-oxadiazole-5-carboxamide] | > 10000 nM
